Tests used:
[1] = molecular target: T1, PxRDL1 (Plutella xylostella, UniProt C0L7I5); test: cell-based; parameters: species or system Xenopus laevis oocytes
T1 sequence (C0L7I5 26-485): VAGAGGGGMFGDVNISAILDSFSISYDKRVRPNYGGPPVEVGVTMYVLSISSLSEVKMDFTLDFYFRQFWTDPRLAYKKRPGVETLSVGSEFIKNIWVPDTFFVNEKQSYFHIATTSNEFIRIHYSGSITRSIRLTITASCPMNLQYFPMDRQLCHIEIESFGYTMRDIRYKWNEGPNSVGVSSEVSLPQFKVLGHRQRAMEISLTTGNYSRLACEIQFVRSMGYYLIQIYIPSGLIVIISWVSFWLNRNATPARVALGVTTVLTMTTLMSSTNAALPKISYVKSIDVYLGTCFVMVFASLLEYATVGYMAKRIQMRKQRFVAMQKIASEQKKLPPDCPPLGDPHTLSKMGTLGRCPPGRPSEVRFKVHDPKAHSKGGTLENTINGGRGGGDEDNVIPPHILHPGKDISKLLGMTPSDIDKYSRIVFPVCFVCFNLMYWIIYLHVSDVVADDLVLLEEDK

[2] = molecular target: T2, PxRDL2 (Plutella xylostella, UniProt C0L7I7); test: two-electrode voltage clamp, Xenopus oocytes; assay type: cell-based
T2 sequence (C0L7I7 30-520): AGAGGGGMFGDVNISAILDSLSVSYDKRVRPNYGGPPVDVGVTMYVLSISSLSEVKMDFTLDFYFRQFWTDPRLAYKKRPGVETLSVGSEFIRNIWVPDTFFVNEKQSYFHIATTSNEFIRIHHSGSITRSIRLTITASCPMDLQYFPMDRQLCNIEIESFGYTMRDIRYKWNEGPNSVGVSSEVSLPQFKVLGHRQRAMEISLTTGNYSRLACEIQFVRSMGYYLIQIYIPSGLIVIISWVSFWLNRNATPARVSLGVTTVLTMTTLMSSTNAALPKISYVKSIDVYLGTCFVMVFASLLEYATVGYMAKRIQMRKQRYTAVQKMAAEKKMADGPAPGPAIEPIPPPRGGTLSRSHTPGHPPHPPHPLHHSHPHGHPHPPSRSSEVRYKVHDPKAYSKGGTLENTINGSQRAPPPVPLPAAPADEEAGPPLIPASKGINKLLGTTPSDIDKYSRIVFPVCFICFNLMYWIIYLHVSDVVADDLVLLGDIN

[3] = molecular target: T2, PxRDL2; test: two-electrode voltage clamp, Xenopus oocytes; assay type: cell-based; remark: listed apart in the source
[4] = molecular target: T1, PxRDL1; test: cell-based; parameters: species or system Xenopus laevis oocytes; remark: listed apart in the source

| EC50 [1] [µM] | EC50 [2] [µM] | Structure (SMILES) | IC50 [3] [µM] | IC50 [4] [µM] |
| --- | --- | --- | --- | --- |
| 20.8 ± 5.99 | 153 | NCCCC(=O)O [GABA] |  |  |
|  |  | N#Cc1nn(-c2c(Cl)cc(C(F)(F)F)cc2Cl)c(N)c1[S+]([O-])C(F)(F)F (stereo not shown) [fipronil] | 5.23 | 0.13 ± 0.01 |

Source: doi:10.1101/2020.08.17.255026v1 (biorxiv, 2020)
